The values that follow come from patent US4931429A, “α-aminoacyl β-aminoacyl aminodiols as anti-hypertensive agents” (G. D. Searle & Co., priority 1987, dated 1990).

The term IC50 denotes the point on the concentration scale where inhibition reaches its midpoint.

The structures appear in SMILES notation.

The test system of one assay is Hog renin. Put plainly: hog renin inhibition assay. The assay is classed as biochemical. Conditions: synthetic tetradecapeptide substrate, pH 7.4, one hour at 37° C., angiotensin I by radioimmunoassay. How it is done:
The hog renin inhibition assay was performed in a manner similar to the human renin assay, with the following modifications. Hog renin was purchased from Sigma Chemical Co. and the synthetic tetradecapeptide substrate was obtained from Peninsula Labs Inc. In a final volume of 0.25 mL 100 mM Tris-acetate buffer at pH 7.4, 0.125m units hog renin, 20 micromolar tetradecapetide, 6 mM disodium EDTA, 3.2 mM phenylmethyl sulfonyl fluoride, 3 mM 8-hydroxyquinoline, 1.2 mg/mL BSA and 0.024 mg/mL neomycin sulfate were incubated for one hour at 37° C. in the presence or absence of renin inhibitors. The amount of angiotensin I produced was determined as for the human renin inhibition assay.

The target in the next assay is T1, Human renin (Homo sapiens, UniProt P00797).
T1 construct: purchased National Institute for Biological Standards, London
T1 sequence (P00797 67-406): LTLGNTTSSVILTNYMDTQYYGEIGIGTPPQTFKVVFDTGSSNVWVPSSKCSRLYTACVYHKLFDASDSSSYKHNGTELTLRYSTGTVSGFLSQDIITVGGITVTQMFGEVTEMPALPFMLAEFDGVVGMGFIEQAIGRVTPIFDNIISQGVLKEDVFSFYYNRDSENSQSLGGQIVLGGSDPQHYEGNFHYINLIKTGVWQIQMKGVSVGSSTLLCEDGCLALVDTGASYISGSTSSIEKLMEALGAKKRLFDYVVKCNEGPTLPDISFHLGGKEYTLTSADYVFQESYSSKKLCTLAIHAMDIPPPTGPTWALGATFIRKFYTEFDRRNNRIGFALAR
The assay can be described thus: human renin inhibition test. The assay is classed as biochemical. Conditions: human plasma substrate, pH 7.4, two hours at 37° C., angiotensin I by radioimmunoassay. On the procedure: The human renin inhibition test has been previously described in detail in papaioannou, et al. (1985) Clinical and Experimental Hypertension A7(9), 1243-1257. Human renin was obtained from the National Institute for Biological Standards, London. In a total volume of 0.25 mL 100 mM Tris-acetate buffer at pH 7.4, 25 x 10-6 Goldblatt units of renin, 0.05 mL of plasma from human volunteers taking oral contraceptives, 6.0 mM sodium EDTA, 2.4 mM phenylmethyl sulfonyl fluoride, 1.5 mM 8-hydroxyquinoline, 0.4 mg/mL BSA, and 0.024 mg/mL neomycin sulfate were incubated for two hours at 37° C. in the presence or absence of renin inhibitors. The produced angiotensin I was determined by radioimmunoassay (New England Nuclear kit). Compounds of Formula I to be assayed were solubilized in either ethyl alcohol or DMSO and diluted with 100 mM Tris-acetate buffer at pH 7.4 to the appropriate concentration. The final concentration of organic solvent in the reaction mixture was less than 1%. Control incubations at 37° C. were used to correct for effects of organic solvent on renin activity.

Consider `CC(CNC(=O)[C@H](Cc1ccccc1)NC(=O)OC(C)(C)C)C(=O)N[C@@H](CC1CCCCC1)[C@@H](O)CO` (stereo partly drawn) [Example 8, Boc-L-phenylalaninyl-D,L-α-methyl-β-alaninamide of (2S,3R)-2-amino-1-cylohexyl-3,4-dihydroxybutane], for which the IC50 with Hog renin stood at 2.1 µM; on Human renin, 2 µM.

Consider `CC(C)C[C@H](O)[C@H](O)[C@H](CC1CCCCC1)NC(=O)C(C)CNC(=O)[C@H](Cc1ccccc1)NC(=O)OC(C)(C)C` (stereo partly drawn) [Example 9, Boc-L-phenylalaninyl-D,L-α-methyl-β-alaninamide of (2S,3R,4S)-2-amino-1-cyclohexyl-3,4-dihydroxy-6-methylheptane], for which the half-maximal inhibitory concentration (IC50) in the assay on Hog renin amounted to 0.0125 µM; against Human renin, 0.21 µM.
